Reference: patent US20250049032A1, “ETHYLENE SIGNALING ACTIVATOR MODULATES ROOT SYSTEM ARCHITECTURE” (Salk Institute for Biological Studies, priority 2021, published 2025)
Entries after “also recorded” stand apart in the source; their conditions may differ.

Experiments:
[1] = tested on: microtubules (TUB6-GFP); test: Microtubule orientation in root tips of TUB6-GFP seedlings; format: in vivo, Arabidopsis thaliana; details: 1 μM IAA or 50 μM MBZ
From the text: (§1) LaserMicroscopy. A Zeiss 710 confocal microscope with 20×, 40×, and 63× objectives were used to detect GFP and propidium iodide (PI) fluorescence. A Keyence BZ-X810 microscope with a 20× objective was used to detect bright field images and GFP fluorescence in FIG. 3B, FIG. 8B right panel, FIG. 9C, FIG. 9F.

[2] = tested on: Arabidopsis thaliana roots; details: for root elongation / root hair growth: 8-day-old seedlings, 1 μM MBZ or 10 nM IAA plates
[3] = tested on: EIN3; test: 35S-EIN3-GFP protein level in ein3eil1 background; format: in vivo, Arabidopsis thaliana; details: 2 hours, 10 μM MBZ or 50 μM ACC
From the text: as §1

[4] = tested on: root cells of etiolated seedlings; test: Root cell size by confocal microscopy (PI staining); format: in vivo, Arabidopsis thaliana; details: 4-day-old etiolated seedlings, 2.5 μM MBZ or 10 μM ACC
From the text: as §1

[5] = tested on: etiolated Arabidopsis seedlings; test: Triple response of etiolated seedlings; format: in vivo, Arabidopsis thaliana; details: for triple response in etr1-3: 4-days-old etiolated etr1-3 seedlings, 2.5 μM MBZ or 10 μM ACC
[6] = tested on: etiolated Col-0 seedlings; test: Measurement of ethylene production by GC-MS; format: in vivo, Arabidopsis thaliana; details: 3-days-old etiolated Col-0 seedlings, 10 μM
Method: Measurement of ethylene production. […] These vials were incubated at 22° C. for 3 days under dark environment. 500-1000 μL sample of the headspace gas was sampled with an autosampler (TriPlus RSH, Thermo Scientific) and injected into a gas chromatograph (Trace 1310 GC, Thermo Scientific) that was equipped with a HP-PLOTQ column ([…], 320 μm, 20 μm) and a mass spectrometer (TSQ8000 Evo MS, Thermo Scientific), scanning from 25-27.5 m/z. Separations were carried out at 35° C. using He as the carrier gas. The area of the ethylene peak (RT: 4 min) was integrated using Thermo Xcalibur Qual Browser. A calibration curve was generated by varying the injection volume (100 μL, 250 μL, 500 μL, and 1000 μL) of a 10 ppm ethylene standard (in nitrogen), and sample results are expressed as concentrations calculated from linear regression of calibration samples.

[7] = tested on: Ethylene Response Factor1 (ERF1); test: Expression of ethylene response marker gene ERF1; format: in vivo, Arabidopsis thaliana; details: root tissue, 2 hours, 10 μM MBZ or ACC (50 μM per legend)
[8] = tested on: Arabidopsis roots; details: 4 hours of ethylene treatment; cited from earlier work
[9] = tested on: Arabidopsis lateral roots; test: Time lapse of lateral root angle phenotyping after plate transfer; format: in vivo, Arabidopsis thaliana
Method: Time lapse of lateral root angle phenotyping. […] Root phenotype images of these plates were acquired by CCD vertical scanners (EPSON Perfection V600 Photo, Seiko Epson CO., Nagano, Japan) every 10 mins over a period of 24 hours using the tool described (Ogura et al., 2022). Root length and lateral root angles were measured using Fiji.

[10] = tested on: Arabidopsis roots; test: mRNA-seq of roots, differential expression and GO analysis; format: in vivo, Arabidopsis thaliana
Method: mRNA-seq analysis. 14 d old seedlings on DMSO plates were transferred to 12 MS liquid plates with DMSO or 10 μM mebedazole treatment for 4 h, root tissues were collected for RNA extraction and RNA-seq.
Read alignment and generation of counts. The TAIR10 genome file and annotation file were obtained from the Arabidopsis Information resource web site (arabidopsis.org). The An aligner, called the Splice Transcripts Alignments to Reference (STAR) version 2.7.0a^44, was used to align short reads in the FASTQ files. In order to use STAR, a STAR index was built using the following parameters:
Then, short reads in the FASTQ files were aligned and gene counts were obtained using the following STAR command:
A custom R script was used to combine counts per gene from count data produced from STAR cross all samples.
Differential expression analysis. Differential expression of genes between treatments and control was determined using the R package, edgeR (version 3.36.0) (Robinson et al., 2010). The CPM (counts per million) function from edgeR was used to normalize the counts and differentially expressed genes (DEGs) were identified using glmLRT function from edgeR.
Analysis of published Ethylene RNA-Seq. The fastq-dump utility from the Short Read Archive (SRA) Toolkit (v2.6.3) (github.com/ncbi/sra-tools) was used to download transcriptome libraries (SRA accession IDs: SRR648276, SRR648275, SRR648274, SRR648300, SRR648299, and SRR648298) from SRA database (ncbi.nlm.nih.gov/sra) (Leinonen et al., 2011). The color space sequencing data were converted to base-space sequencing data using Perl script ‘csfq2fq.pl’ (gist.github.com/pcantalupo/9c30709fe802c96ea2b3). The converted FASTQ files were aligned and analyzed using above methods.
Statistical analysis. A two-sided Student's t-test was used for comparisons of two conditions. The comparison of meristem length, mature cell length, root length, GSA between multiple treatments or genotypes was performed by One-way ANOVA and post hoc Tukey testing. Detailed information was prepared in figure legends. Statistical significance of overlap between DEGs from MBZ treatment and ethylene treatment was assessed by hypergeometric distribution test. Hypergeometric test function in R was used to calculate statistical significance: • $ phyper(q−1, m, n-m, k, lower.tail=FALSE, log.p=FALSE) • q=the number of genes in common between two sets • m=the number of genes in Set 1; • n=the total number of genes in RNA-Seq counts table (33,602) • k=the number of genes in Set 2

[11] = tested on: DR5-GFP V2; test: DR5-GFP V2 auxin response reporter in roots; format: in vivo, Arabidopsis thaliana
From the text: as §1

[12] = molecular target: hsMAPK14 (Homo sapiens, UniProt Q16539); details: mammalian systems, Ariey-Bonnet et al., 2020; cited from earlier work
[13] = tested on: IAA1, IAA29, GH3.2, GH3.3, and MAKR4; test: Expression of marker genes of auxin signaling; format: in vivo, Arabidopsis thaliana; details: 10 μM MBZ, 2 h
[14] = tested on: ARR5; test: Expression of immediate-early cytokinin target gene ARR5; format: in vivo, Arabidopsis thaliana; details: 10 μM MBZ, 3 h, 6 h or 12 hours
[15] = molecular target: T1, MAPK4 (Arabidopsis thaliana, UniProt Q39024); test: In vitro kinase assay with non-radioactive ATP-γ-S; format: biochemical; details: 0, 10, 100 μM MBZ
T1 construct: 6xHis (N); made in house; host or cells: E. coli Rosetta 2 (DE3)pLysS
T1 sequence (Q39024 1-376): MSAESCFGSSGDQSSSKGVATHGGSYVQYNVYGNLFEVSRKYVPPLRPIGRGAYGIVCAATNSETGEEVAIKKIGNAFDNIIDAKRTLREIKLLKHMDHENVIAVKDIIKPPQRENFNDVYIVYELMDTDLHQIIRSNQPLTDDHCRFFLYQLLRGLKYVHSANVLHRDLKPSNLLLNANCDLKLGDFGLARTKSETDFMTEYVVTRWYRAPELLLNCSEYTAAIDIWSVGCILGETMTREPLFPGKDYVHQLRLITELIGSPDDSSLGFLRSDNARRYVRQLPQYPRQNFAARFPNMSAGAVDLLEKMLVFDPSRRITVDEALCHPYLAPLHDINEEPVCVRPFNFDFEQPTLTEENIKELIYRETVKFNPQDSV
Method: Protein purification. The CTR1 Kinase domain (540 aa-821 aa) (CTR1-KD) and MAPK4 were cloned into a modified pET28a with 6× His tag at their N-terminal. Proteins were expressed in Rosetta™ 2 (DE3)pLysS Competent Cells. Bacteria was cultured in 30 mL LB media containing 50 μg/mL kanamycin overnight at 37° C., 200 rpm. The culture was transferred into 1 L LB media with kanamycin. After the culture reached to 0.7 to 0.9 at OD 600 nm, 0.4 mM isopropylthiop-D-galactoside (IPTG) was added, and the culture was grown for 22 h at 20° C., 200 rpm. Cells were harvested by centrifugation at 4° C. for 10 mins at 3,000×g. The pellet was washed with 0.9% NaCl and resuspended in 40 mL lysis buffer (50 mM pH 7.5 Tris-HCl, 1 mM EDTA, 100 mM NaCl, 20% glycerol, EDTA-free protease inhibitor cocktail, 10 mM imidazole). […] Protein concentration was measured by their absorbance at 280 nm.
In vitro kinase assay with non-radioactive ATP-7-S. The in vitro kinase assay followed the previous published method ([…]). […] The phosphorylation status of MBP, CTR1-KD and MPK4 were analyzed by western blot using Recombinant Anti-Thiophosphate ester antibody (Abcam, Cat. Ab92570, 1:5000) followed by Goat Anti-Rabbit IgG (H+L)-HRP Conjugate antibody (Bio-Rad, Cat. No. 170-6515, 1:5000). The MBP, CTR1-KD and MPK4 proteins loading amounts were measured by Coomassie Blue R250 staining.

[16] = 1 μM MBZ, one week after germination

Chain of hsMAPK14 (Q16539 whole entry): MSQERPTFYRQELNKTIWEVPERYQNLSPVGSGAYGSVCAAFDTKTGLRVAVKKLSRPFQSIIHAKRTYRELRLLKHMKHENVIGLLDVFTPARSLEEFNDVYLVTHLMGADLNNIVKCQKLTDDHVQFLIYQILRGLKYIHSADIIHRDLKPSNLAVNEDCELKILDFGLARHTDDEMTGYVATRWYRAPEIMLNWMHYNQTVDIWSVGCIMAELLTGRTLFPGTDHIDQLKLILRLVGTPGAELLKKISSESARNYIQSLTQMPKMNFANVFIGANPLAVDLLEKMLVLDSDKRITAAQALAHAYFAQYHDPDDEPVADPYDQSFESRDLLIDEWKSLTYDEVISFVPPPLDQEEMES

O=C(O)Cc1c[nH]c2ccccc12 [IAA]
orientation of tubulin in roots within 1 h [1]: significantly changed
root elongation [2]: inhibited
root hair growth [2]: enhanced

NC1(C(=O)O)CC1 [ACC, 1-aminocy-clopropane-1-carboxylic acid]
35S-EIN3-GFP protein level [3]: dramatically induced
mature cell size [4]: reduced
triple response in etr1-3 [5]: completely insensitive
ethylene production [6]: dramatically induced
transcript level of ERF [7]: strongly induced
effect on root angle ([2]; ACC at certain concentrations (0.1-10 μM range)): weak but distinct effect

C=C [ethylene]
number of DEGs upon ethylene treatment (published data) [8]: 1397 genes

COC(=O)Nc1nc2ccc(C(=O)c3ccccc3)cc2[nH]1 [MBZ, Mebendazole]
35S-EIN3-GFP protein level [3]: dramatically induced
mature cell size [4]: reduced
reversibility of effect on lateral root angles ([9]; 1 μM MBZ, removal): fully reversible
time to change of GSA in time-lapse experiment ([9]; MBZ treatment): one to four
time until lateral root tips grow at a distinctly steeper angle upon removal from MBZ ([9]; transfer from 1 μM MBZ back to control conditions, 5 lateral root tips): four
time until lateral root tips grow at a more horizontal angle ([9]; transfer from DMSO to 1 μM MBZ medium, five lateral root tips): three
triple response phenotype ([5]; 3-day-old etiolated seedlings, 10 μM MBZ): significant triple response phenotype
triple response in etr1-3 [5]: showed the typical triple response phenotype
triple response in ethylene insensitive mutants ein2-5 and ein3eil1 ([5]; MBZ (2.5 μM), etiolated seedlings): abolished; also recorded: didn't show a triple response
concentration sufficient to induce the triple response phenotype ([5]; dark environment): 2.5 µM
GO enrichment of ethylene-activated signaling pathway (GO:0009873) ([10]; 10 μM MBZ, 4 hours): 10.83 fold enrichment
GO enrichment of negative regulation of ethylene-activated signaling pathway (GO:0010105) ([10]; 10 μM MBZ, 4 hours): 21.03 fold enrichment
number of differentially expressed genes (DEGs) ([10]; 4 hours of MBZ treatment): 1335 genes
DEGs overlapping with DEGs of 4 hours ethylene treatment ([10]; 4 hours of MBZ treatment vs published ethylene data): 306 genes
common DEGs retaining directionality of expression change ([10]; MBZ vs ethylene, 4 h): More than 90%
DR5-GFP V2 expression within 3 hours compared to mock ([11]; 10 μM MBZ, 3 h): no increased
DR5-GFP V2 expression, long-term treatment ([11]; 7-day-old roots grown on 1 μM MBZ plates): induced
activity on hsMAPK14 [12]: inhibitor
ethylene production [6]: not detected
expression of marker genes of auxin signaling [13]: did not show any significant change
transcript level of ERF [7]: strongly induced
ARR5 expression [14]: did not respond
effect on MAPK4 kinase activity compared to CTR1 [15]: much less pronounced
kinase activity of MPK4 ([15]; concentration dependent): inhibited
decreased root length (in average reduced by) [2, 16]: 37%
root hair initiation and elongation [2, 16]: increased
root length of ein2-5 and ein3eil1 mutant plants ([2]; 1.2 μM MBZ): clearly not affected
root phenotype of Col-0 ([2]; 1.2 μM MBZ): short roots and increased root hair development
response of etr1-1 and etr1-3 ethylene receptor mutants (root length, GSA) ([2]; 1.2 μM MBZ plates): strongly responded
lateral root angles of ctr1-1, ein2-5, and ein3eil1 plants ([2]; 2 to 3-weeks-old plants, 1.3 μM MBZ): insensitive
root elongation [2]: inhibited
root hair growth [2]: enhanced
lateral root angle ([2]; MBZ treatment): distinctly increased
plant growth and development ([2]; in vivo): strongly inhibited plant growth and development
lateral root gravitropic setpoint angle (GSA) ([2]; two-week-old seedlings grown on 1 μM MBZ plates): approx. 70 °
